# Measured values published in US20260132172A1, “IN VITRO BIOSYNTHESIS OF DIVERSE PYRIDINE-BASED MACROCYCLIC PEPTIDES” (The Brd. of Trustees of the Univ. of Illinois, priority 2022, published 2026).
# Where a SMILES comes first, the peptide text is derived from it. The star is where a group is joined. 5FAM = O=C1OC2(c3ccc(O)cc3Oc3cc(O)ccc32)c2ccc(C(=O)*)cc21
# What was measured:
# MBP-MroD = experiment: Fluorescence polarization to measure KD with MroD; assay type: binding, Micromonospora rosaria
# Procedure: (§1) All proteins and peptides were prepared in the 0.5× storage buffer before concentration/FP measurement. Experiments were done in triplicates. Stock fluorescein-labeled peptide was measured concentration using A490 (ε: 70,000 M^−1 cm^−1). Initial sample was prepared: 5 nM labelled Δ12MroA1 (for MroD; for MroB, only 2 nM labelled Δ12MroA1 was used), 10 μM MBP-MroB (A280 ε: 178,885 M^−1 cm^−1) or 10 μM MBP-MroD (A280 ε:115,740 M^−1 cm^−1). In a black 96-well plate (Corning 3686), 50 μL of initial sample was added to the first well, followed by 11 3-fold dilutions into subsequent wells containing 5 nM labeled Δ12MroA1. The plate was covered from light and incubated at room temperature for 1 h, and then fluorescence polarization was measured (Biotek Synergy H4 hybrid reader) using the following filter (Excitation: Emission—485 nm/20 nm: 518 nm/20 nm). The obtained data was converted to anisotropy value and plotted against protein concentration. Using the OriginPro software, the data were fitted to receptor depletion equation:^11
# (§2) Where: y=anisotropy value, A1=minimum anisotropy, A2=maximum anisotropy, Lt=probe concentration, and x=total enzyme concentration.
# MBP-MroB = experiment: Fluorescence polarization to measure KD with MroB; assay type: binding, Micromonospora rosaria
# Procedure: as §1, §2
# MroB = experiment: Competition fluorescence polarization with fluorescein-Δ12MroA1, MroB; assay type: binding, Micromonospora rosaria; conditions: competition FP, 80 nM enzyme, 5 nM labeled Δ12MroA1
# Procedure: (§3) The initial sample contained 80 nM enzyme, 5 nM labeled Δ12MroA1 peptide, and competitor peptide (concentration is from 20 μM to 100 μM, depending on the experiment). In a black 384-well plate (Corning 3575), 30 μL of initial sample was added to the first well, followed by 13 2-fold dilutions into subsequent wells containing 80 nM MBP-MroB and 5 nM labeled Δ12MroA1. The plate was covered from light and incubated at room temperature for 10 min, and then fluorescence polarization was measured (Biotek Synergy H4 hybrid reader) using the following filter (Ex: Em—485 nm/20 nm: 518 nm/20 nm). The obtained data was converted to anisotropy value and plotted against peptide concentration, and fitted to dose-response function:
# (§4) Where: y=anisotropy value, A1=minimum anisotropy, A2=maximum anisotropy, p=Hill's coefficient, x=competitor concentration. The obtained IC50 was used to calculate inhibitor constant Krusing the following equation: 12
# (§5) In cases where competitor concentration was not high enough to achieve a plateau, the competition curve was fitted with minimum anisotropy fixed to be the same value as the anisotropy value of the free probe solution. This calculation assumed that the labeled peptide was completely displaced from the enzyme binding pocket at a very high concentration of the competitor. […] The specific minimum anisotropy used in this experiment for both MroB and MroD was 65.
# MroBCD = MroBCD treatment of precursor peptides, overall pyritide biosynthesis; assay type: biochemical, Micromonospora rosaria; conditions: result in words
# Procedure: (§6) In a 0.65 mL protein low-binding Eppendorf tube placed on ice. 0.75 μL of purified mroA variant template DNA was mixed with 0.75 μL of Solution B and 1 μL of Solution A of PURExpress In vitro Protein Synthesis Kit (E6800L) purchased from NEB (total volume of reaction is 2.5 μL). The translation reactions were performed at 37° C. for 1 h on an aluminum block.
# For a full MroBCD substrate scope investigation, a total translation volume for each variant of 7.5 μL was performed. 1.5 μL of 90 mM iodoacetamide (IAA) was added to quench dithiothreitol (DTT) in the translation reaction mixture, a thiol-based nucleophile that can react with electrophilic dehydroalanines generated from MroBC-catalyzed dehydration assays. The translation product was split into two parts with these corresponding volumes: 3 μL and 6 μL. In the 6 μL part. 10.2 μL of the enzyme mix containing enzymes and cofactors was added along with 1.8 μL 90 mM ATP (pH 7.5), which was used to initiate the reaction. […]
# After incubation, the enzyme reaction (18 μL) was split into two equal parts. […] The crystallized spots were then analyzed using MALDI-TOF-MS (Bruker Ultraflex). […]
# MroD [1] = experiment: Competition fluorescence polarization with fluorescein-Δ12MroA1, MroD; assay type: binding, Micromonospora rosaria; conditions: competition FP, 80 nM enzyme, 5 nM labeled Δ12MroA1
# Procedure: as §3, §4, §5
# MroD [2] = experiment: MroD [4+2] macrocyclization of didehydrated MroA2 variants, MALDI-TOF-MS; assay type: biochemical, Micromonospora rosaria; set-up: key: +++ indicates enzyme activity roughly equal to wild-type MroA2; ++ indicates modestly reduced enzyme activity; + indicates severely reduced enzyme activity; − indicates no detectable enzyme activity (no macrocycles observed); conditions: MroA2 multi-site variants; qualitatively estimated from leader peptide vs remaining didehydrated intermediate
# Procedure: (§7) After incubation, the enzyme reaction (18 μL) was split into two equal parts. One part was treated with MBP-MroD such that the final concentration of MBP-MroD is 3 μM, and the other part was added the same volume but with buffer lacking MBP-MroD (50 mM HEPES, 300 mM NaCl, 2.5% glycerol, 0.5 mM TCEP). The reaction further proceeded for 1.5 h at room temperature. All reaction mixture was then desalted with solid-phase extraction using Ziptip with 0.6 μL C18 resin (EMD Millipore) and crystallized on an MTP384 steel target plate using either saturated sinapic acid or 50 mg/mL Super DHB [dissolved in 60% acetonitrile and 0.1% trifluoroacetic acid (TFA)] as the matrix. The crystallized spots were then analyzed using MALDI-TOF-MS (Bruker Ultraflex). The external standard for MALDI-TOF-MS analysis is ProteoMass Peptide and Protein MALDI-MS Calibration Kit (Sigma).
# MroB/C = MroB/C dehydration (Dha formation) of MroA precursor peptide variants, MALDI-TOF-MS / LC-MS/MS; assay type: biochemical, Micromonospora rosaria; conditions: MroA2 multi-site variants, in vitro translated, MALDI-TOF-MS
# Procedure: as §6
# For a full MroBCD substrate scope investigation, a total translation volume for each variant of 7.5 μL was performed. 1.5 μL of 90 mM iodoacetamide (IAA) was added to quench dithiothreitol (DTT) in the translation reaction mixture, a thiol-based nucleophile that can react with electrophilic dehydroalanines generated from MroBC-catalyzed dehydration assays. The translation product was split into two parts with these corresponding volumes: 3 μL and 6 μL. In the 6 μL part. 10.2 μL of the enzyme mix containing enzymes and cofactors was added along with 1.8 μL 90 mM ATP (pH 7.5), which was used to initiate the reaction. The enzyme mix was made by adding these components in the following order: HEPES pH 7.5, MgCl2, glutamate, T. bispora tRNA^Glu (CUC), thermostable inorganic pyrophosphatase (TIPP), TEV (L56V/S135G/S219V) (w/w ratio with a total amount of MBP-tagged protein=1:10), MBP-MroB, MBP-MroC, and T. bispora GluRS. The enzyme mix was incubated 25 min at room temperature before adding to the translation product to facilitate in situ TEV-catalyzed cleavage of MBP from MBP-MroB and MBP-MroC. The enzymatic reaction proceeded for 1 h at room temperature. Overall, the concentration of components in the 18 μL reaction mix is as follows: 50 mM HEPES pH 7.5, 5 mM MgCl2. L-glutamate 1 mM, 3 μM T. bispora tRNA^Glu, 1 μM T. bispora GluRS, 2 μM MBP-MroB, 2 μM MBP-MroC, […], 0.027 U/μL TIPP, and 5 mM IAA. In addition, the 3 μL part was incubated with the same buffer lacking enzymes and tRNA as a translation control.
# The reactions were performed similarly as described above, with 10 μM substrate concentration and without IAA. The total volume of each reaction is 100 μL.
# Enzymatic assays were desalted using solid-phase extraction prior to LC-ESI-MS/MS analysis. Specifically, except for the thiazol(in)es-containing pyritide (which utilize 8 mg Pierce C18 Spin Column), the samples were applied to Toptip C18 (10-200 μL, Glygen Corp) wetted with 50 μL of 80% acetonitrile (0.1% formic acid) and equilibrate with 150 μL of 0.1% formic acid following the manufacturer instructions. The C18 columns (tips) are then washed with 150 μL of 0.1% formic acid and eluted using 100 μL 80% acetonitrile (0.1% formic acid). The samples were then dried utilizing lyophilization and redissolved in 25% acetonitrile (80 μL for enzymatic assays of in vitro-translated substrates and 200 μL for enzymatic assays of purified substrates). Then 20 μL of each sample was injected into an Agilent AdvanceBio Peptide Plus column (2.1×150 mm, 2.7 μm) equipped with an Agilent 6545B Q-TOF interfaced with an Agilent 1290 Infinity II LC system. Mobile phase solvents were composed of H2O, 0.1% formic acid (Solvent A), and acetonitrile 0.1% formic acid (Solvent B). The column compartment was maintained at 35° C. during all experiments. The column was equilibrated with 5 column volumes of starting mobile phase (95% A and 5% B) between injections. The gradient of all LC runs was as follows: 0-2 min: 95% A 5% B, 2-3 min: 70% A 30% B, 3-18 min: 20% A 80% B, 18-20 min: 5% A 95% B. The samples were run to waste for the first 3 min before applying to the mass spectrometer. Mass range was set from 100 to 1700 m/z (except for 412MroA1 W7G: 100-3000 m/z). MS parameters were as follows: gas, 320° C. at 8 L/min: nebulizer, 35 psig: nozzle voltage, 1000 V: sheath gas, 350° C. at 11 L/min: capillary, 3500 V: fragmentor, 125 V: skimmer, 65 V: MS scan rate (10) spectra/s): MS-MS scan rate (5 spectra/s); and isolation width (MS/MS), 1.3 m z. […]
# MroD [3] = experiment: MroD [4+2] macrocyclization of didehydrated MroA2 variants, MALDI-TOF-MS; assay type: biochemical, Micromonospora rosaria; conditions: MroA2 multi-site variants; qualitatively estimated from leader peptide vs remaining didehydrated intermediate
# Procedure: as §7
# [4] = target: MBP-MroD (Micromonospora rosaria MroD with maltose-binding protein fused to the N-terminus) (Micromonospora rosaria) [MBP: P0AEX9]; experiment: fluorescence polarization, MBP-MroD titrated against labeled peptide
# [5] = target: MBP-MroB (Micromonospora rosaria MroB with maltose-binding protein fused to the N-terminus) (Micromonospora rosaria) [MBP: P0AEX9]; experiment: fluorescence polarization, MBP-MroB titrated against labeled peptide
compound,measurement,setting,value
CC[C@H](C)[C@H](NC(=O)[C@@H](NC(=O)[C@H](Cc1c[nH]c2ccccc12)NC(=O)[C@H](CO)NC(=O)CNC(=O)[C@H](CC(C)C)NC(=O)[C@H](Cc1c[nH]c2ccccc12)NC(=O)CNC(=O)[C@H](CO)NC(=O)[C@H](C)NC(=O)CNC(=O)[C@@H](NC(=O)[C@H](CCC(=O)O)NC(=O)[C@@H](NC(=O)[C@H](CC(N)=O)NC(=O)CNC(=O)[C@H](CC(C)C)NC(=O)CNC(=O)CNC(=O)[C@@H](NC(=O)[C@H](CO)NC(=O)[C@H](CC(C)C)NC(=O)[C@H](C)NC(=O)[C@H](C)NC(=O)[C@H](CC(C)C)NC(=O)[C@H](CCC(=O)O)NC(=O)[C@H](CCC(=O)O)NC(=O)[C@H](CC(=O)O)NC(=O)[C@@H](NC(=O)[C@H](C)NC(=O)[C@H](CC(C)C)NC(=O)[C@H](CC(=O)O)NC(=O)[C@H](CC(C)C)NC(=O)[C@H](CC(=O)O)NC(=O)[C@@H](NC(=O)[C@@H](NC(=O)[C@H](CC(=O)O)NC(=O)[C@H](CC(C)C)NC(=O)[C@H](CC(=O)O)NC(=O)[C@H](CO)NC(=O)c1ccc2c(c1)C(=O)OC21c2ccc(O)cc2Oc2cc(O)ccc21)[C@@H](C)CC)C(C)C)C(C)C)C(C)C)[C@@H](C)O)C(C)C)C(C)C)C(=O)O [fluorescein-Δ12MroA1] (5FAM-SDLDIVDLDLAVDEELAALSVGGLGNTEVGASGWLGSWVI-OH),Kd,MBP-MroD,~12 nM
same,Kd,MBP-MroB,~60 nM
H-SDLDIVDLDLAVDEELAALSVGGLGNTEVGASGWLGSWVI-OH [Δ12MroA1],IC50,MroB,680 ± 40 nM
same,overall pyritide biosynthesis (dehydration and macrocyclization) by MroBCD,MroBCD,full dehydration and macrocyclization
same,IC50,MroD [1],900 ± 20 nM
"SGFFGRSWLI [MroA2, wild-type precursor peptide of M. rosaria]",Relative MroD conversion,MroD [2],+++
same,overall pyritide biosynthesis (dehydration and macrocyclization) by MroBCD,MroBCD,yielding the expected pyritides
same,Dha formation,MroB/C,2 Dha
SGIAKAGQSWLI [Number 28],Relative MroD conversion,MroD [3],1
same,Dha formation,MroB/C,2 Dha
fluorescein-Δ12MroA1 (Δ12MroA1 N-terminally labeled with fluorescein) (peptide),Kd,[4],12 nM
same,Kd,[5],60 nM
